EP1246814B1, “COMPOUNDS AND METHODS FOR MODULATION OF ESTROGEN RECEPTORS” (SIGNAL PHARMACEUTICALS, INC., priority 1999, dated 2001)
pIC50, pKi: −log10 of the molar value. Where a name gives a salt, the structure may show the parent alone. Read-outs that look alike come from different tables or passages of the source. Values belong to the compound of their own block, whether it stands above or below them.

What was measured:
human full-length ER-α = molecular target: T1, human full-length ER-α (Homo sapiens, UniProt P03372); test: IL-6 production in U2OS osteosarcoma cells stably transfected with ER-α; assay type: cell-based
T1 construct: expression vectors for human full-length ER-α or ER-β; expressed in transfected cells
T1 sequence (P03372 1-595): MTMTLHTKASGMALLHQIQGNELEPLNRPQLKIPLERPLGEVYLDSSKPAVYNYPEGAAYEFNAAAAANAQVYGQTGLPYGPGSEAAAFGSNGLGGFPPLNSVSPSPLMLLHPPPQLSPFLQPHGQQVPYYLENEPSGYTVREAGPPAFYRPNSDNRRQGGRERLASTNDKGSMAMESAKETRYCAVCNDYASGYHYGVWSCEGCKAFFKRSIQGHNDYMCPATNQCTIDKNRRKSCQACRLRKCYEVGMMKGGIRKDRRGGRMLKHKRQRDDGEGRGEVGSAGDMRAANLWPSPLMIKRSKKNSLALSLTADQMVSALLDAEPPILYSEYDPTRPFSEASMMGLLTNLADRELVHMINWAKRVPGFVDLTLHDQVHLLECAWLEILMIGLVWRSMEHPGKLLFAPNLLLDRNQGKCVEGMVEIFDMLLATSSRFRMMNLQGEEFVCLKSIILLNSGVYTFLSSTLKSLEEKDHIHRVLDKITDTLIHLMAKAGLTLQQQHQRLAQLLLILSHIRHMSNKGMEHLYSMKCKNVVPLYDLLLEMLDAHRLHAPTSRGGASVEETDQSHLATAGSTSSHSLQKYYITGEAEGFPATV
Experimental: (§1) Human U2OS osteosarcoma cells (ATCC) were stably transfected with expression vectors for human full-length ER-α or ER-β, respectively, using standard molecular biology techniques. Stable subclones were generated that expressed high levels of ER-α or ER-β mRNA. The expression of ER-α and ER-β was confirmed using RNase protection analysis.
(§2) Cells were plated into 96-well plates at a density of 8000 cells per well in phenol red-free media with charcoal-stripped fetal calf serum. Twenty-four hours later, cells were either treated with vehicle (0.2% DMSO) or test compound at the concentrations indicated (in 0.2% DMSO). Thirty minutes later cells were stimulated with 10 ng/ml IL-1β and 10 ng/ml TNF-α. Twenty-four hours later the media supernatant was analyzed for cytokine production (IL-6) using commercially available ELISA kits following the manufacturer's instructions. Cytokine production in the presence of vehicle (0.2% DMSO) was set to 100%.

human full-length ER-β = molecular target: T2, human full-length ER-β (Homo sapiens, UniProt Q92731); test: IL-6 production in U2OS osteosarcoma cells stably transfected with ER-β; assay type: cell-based; conditions: for ER subtype specificity (ER-β versus ER-α): comparison of the U2OS IL-6 IC50 values of Table 4
T2 construct: expression vectors for human full-length ER-α or ER-β; expressed in transfected cells
T2 sequence (Q92731 whole entry): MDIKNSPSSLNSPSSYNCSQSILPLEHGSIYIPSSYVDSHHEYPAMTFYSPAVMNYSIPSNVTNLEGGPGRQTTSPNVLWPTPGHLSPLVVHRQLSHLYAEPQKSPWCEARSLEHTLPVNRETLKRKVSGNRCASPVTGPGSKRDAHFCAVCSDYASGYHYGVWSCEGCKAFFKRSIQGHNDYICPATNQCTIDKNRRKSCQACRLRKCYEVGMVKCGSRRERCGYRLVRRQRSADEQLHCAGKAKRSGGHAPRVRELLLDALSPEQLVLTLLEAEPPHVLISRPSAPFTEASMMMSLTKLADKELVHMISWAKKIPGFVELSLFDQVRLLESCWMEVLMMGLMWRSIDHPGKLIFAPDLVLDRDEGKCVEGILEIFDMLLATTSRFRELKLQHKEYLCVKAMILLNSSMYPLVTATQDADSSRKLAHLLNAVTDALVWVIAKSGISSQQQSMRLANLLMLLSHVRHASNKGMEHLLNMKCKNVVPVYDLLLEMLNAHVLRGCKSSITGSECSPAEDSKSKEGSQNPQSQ
Experimental: as §1, §2

U2OS IL-6 ER-Minus = test: IL-6 production in ER-minus U2OS osteosarcoma cells; assay type: cell-based; conditions: Homo sapiens
IL-6 = test: Human bone cell co-culture system, IL-6 production; assay type: cell-based; conditions: for pIC50: human bone co-culture system of Example 12
Experimental: (§3) The generation of osteoblastic cells from normal adult femoral travecular bone from patients without evidence of metabolic bone disease was carried out as previously described (Kung Sutherland et al., Osteoporosis International 5:335-343, 1995; Wong et al., J Bone Miner 5:803-813, 1990). Bone fragments were cleaned of adherent tissue and blood and cultured for 4 weeks in medium containing Ham's F12 supplemented with 28 mM HEPES, pH 7.4, 10% FCS, 1.1 mM CaCl2, 2 mM glutamine, and 1% antibiotic-antimycotic agent. Upon confluency, the cells were harvested and immortalized using a retroviral vector (pLXSN) containing the neomycin resistance gene and the human papillomaviral (HPV18) E6 and E7 concogenes (International Journal of Oncology 6:167-174, 1995). The immortalized osteoblastic cells were selected in medium containing G418 (600 µg/ml).
(§4) The human U937 moncytic cell line (cloned from the commercially available cells by serial dilution) was maintained in RPMI 1640 medium containing 10% FCS and 1% antibiotic-antimycotic agent.
The co-culture system was established as follows. Human osteoblastic cells were plated in 96-well dishes at a density of 5 x 10^3 cells/well. U937 cells in RPMI medium (5 x 10^4 cells/well) were layered over the osteoblasts. The formation of osteoclast-like cells was induced with 100 nM PMA. To determine the effects of compounds or the neutralizing antibodies to IL-6 (Sigma) and GM-CSF (Pharmingen) on the formation of osteoclast-like cells, the compounds or the antibodies were added 30 minutes prior to the addition of PMA. The cultures were stopped after 96 hrs and processed for histochemical or immunohistochemical analyses.

human recombinant ER-α = molecular target: T3, human recombinant ER-α (Homo sapiens, UniProt P03372); test: Solid phase ER binding assay (3H-estradiol competition), ER-α; conditions: for pKi: ER binding assay of Example 18, read-out: ER Binding Assay ER-α (Ki)
T3 sequence (P03372 1-595): T1 sequence (P03372 1-595)

GM-CSF = test: Human bone cell co-culture system, GM-CSF production; assay type: cell-based
Experimental: as §3, §4
The co-culture system was established as follows. Human osteoblastic cells were plated in 96-well dishes at a density of 5 x 10^3 cells/well. U937 cells in RPMI medium (5 x 10^4 cells/well) were layered over the osteoblasts. The formation of osteoclast-like cells was induced with 100 nM PMA. […]

[1] = 28-day uterine bioassay in ovariectomized rats; assay type: in vivo
[2] = 3-day immature rat uterine bioassay; conditions: s.c. administration
human recombinant ER-β = human recombinant ER-β (Homo sapiens, UniProt Q92731); test: Solid phase ER binding assay (3H-estradiol competition), ER-β; conditions: ER binding assay of Example 18
Chain of human recombinant ER-β (Q92731 whole entry): as above

SMILES: CCC(=C(c1ccc(O)cc1)c1ccc(OCCN(C)C)cc1)c1ccccc1 [4-Hydroxy-Tamoxifen]
pIC50 (U2OS IL-6 ER-Minus): < 6.00

SMILES: C[C@]12CC[C@@H]3c4ccc(O)cc4CC[C@H]3[C@@H]1CC[C@@H]2O [Estradiol, 17β-estradiol]
production of IL-6 (IL-6; co-culture system): suppress the production of IL-6
production of GM-CSF (GM-CSF; co-culture system): reduced the production of GM-CSF
increase in uterine weight ([1]; ovariectomized rats, 28-day, daily s.c. injection): 550%
pIC50 (U2OS IL-6 ER-Minus): < 6.00
increase in uterine weight [2]: 4.5 fold

SMILES: O=c1oc2cc(O)ccc2c(Cc2ccc(OCCN3CCCCC3)cc2)c1-c1ccccc1 [Compound No. 1, 3-PHENYL-4-[4-(2-{PIPERIDIN-1-YL})ETHOXY]-BENZYL-7-HYDROXYCOUMARIN]
pIC50 (IL-6; read-out: IC50 with respect to IL-6): 8.00
pIC50 (GM-CSF; human bone co-culture system of Example 12, read-out: IC50 with respect to GM-CSF): 7.42
Ki (human recombinant ER-α; read-out: Solid Phase ER Binding Ki (nM) ER-α, ER-α 15 nM, 30 nM 3H-estradiol, room temperature, average of at least 3 experiments): 1.4 nM
increase in uterine weight ([2]; not statistically different from vehicle (PEG-400)): ~30%

SMILES: CCN(CC)CCOc1ccc(-c2c(-c3ccccc3)c(=O)oc3cc(O)ccc23)cc1 [Compound No. 38]
pIC50 (IL-6; read-out: IL-6 Activity (IC50)): 6.76
pKi (human recombinant ER-α): 6.16
pKi (human recombinant ER-β): 5.81
pIC50 (human full-length ER-α): < 6.00
pIC50 (human full-length ER-β): 6.78
ER subtype specificity (ER-β versus ER-α) (human full-length ER-β): specificity for ER-β over ER-α
pIC50 (U2OS IL-6 ER-Minus): < 5.00

Other lines, results leading:

pIC50 (human full-length ER-α): 6.49
pIC50 (human full-length ER-β): 7.29
ER subtype specificity (ER-β versus ER-α) (human full-length ER-β): specificity for ER-β over ER-α
pIC50 (U2OS IL-6 ER-Minus): < 6.00
SMILES: O=c1oc2cc(O)ccc2c(-c2ccc(OCCN3CCCCC3)cc2)c1-c1ccc(Cl)cc1 [compound 16]

pIC50 (IL-6; read-out: IL-6 Activity (IC50)): < 6.00
pKi (human recombinant ER-α): < 5.00
pIC50 (human full-length ER-α): < 6.00
pIC50 (human full-length ER-β): < 6.00
pIC50 (U2OS IL-6 ER-Minus): < 6.00
SMILES: CCN(CC)CCOc1ccc(-c2c(-c3ccccc3)c(=O)oc3ccccc23)cc1 ["L-20", reference compound]

increase in uterine weight ([1]; female, rat, in vivo, sc, 28 day): ~70%
pIC50 (U2OS IL-6 ER-Minus): < 6.00
increase in uterine weight ([2]; 1mg/kg dose): up to 50%
SMILES: O=C(c1ccc(OCCN2CCCCC2)cc1)c1c(-c2ccc(O)cc2)sc2cc(O)ccc12 [Raloxifene HCl, Raloxifene Hydrochloride]
